Experimental data taken from publication PMC9254721, “Global update on the susceptibilities of human influenza viruses to neuraminidase inhibitors and the cap-dependent endonuclease inhibitor baloxavir, 2018–2020” (Antiviral research, 2022).
Several values for one entry are separate records, joined by “and”; a condition that tells them apart may be missing. Identical values can stand only once.

Experiments:
[1] = system: A(H3N2) virus neuraminidase (NA); assay type: biochemical, influenza A(H3N2) virus
[2] = system: A(H1N1)pdm09 virus neuraminidase (NA); assay type: biochemical, influenza A(H1N1)pdm09 virus
[3] = system: influenza viruses; settings: PA-I38V, PA-E199G alone, when present in other subtypes; ref PA marker table; cited from earlier work
[4] = system: A(H1N1)pdm09 viruses; assay type: cell-based, influenza A(H1N1)pdm09 virus
[5] = system: recombinant A(H1N1) virus; settings: PA-A37S in a recombinant A(H1N1) virus; ref Hashimoto et al., 2021; cited from earlier work
[6] = system: influenza viruses; assay type: cell-based, influenza virus
[7] = system: A(H3N2) viruses; assay type: cell-based, influenza A(H3N2) virus
[8] = system: B/Victoria-lineage viruses; assay type: cell-based, influenza B/Victoria-lineage virus
[9] = system: B/Victoria-lineage virus neuraminidase (NA); assay type: biochemical, influenza B/Victoria-lineage virus

## CC(=O)N[C@H]1[C@H]([C@H](O)[C@H](O)CO)OC(C(=O)O)=C[C@@H]1N=C(N)N [Zanamivir, zanamivir]
[1]
  inhibition phenotype (NI/RI/HRI): RI (key: normal inhibition (NI) is a <10-fold increase in the NAI IC50; RI is a 10- to 100-fold increase; HRI is a >100-fold increase)

## [H]/N=C(\N)N[C@H]1C=C(C(=O)O)O[C@@H]([C@H](OC)[C@H](O)CO)[C@@H]1NC(C)=O [Laninamivir, laninamivir]
[2]
  inhibition phenotype (NI/RI/HRI): RI (key: normal inhibition (NI) is a <10-fold increase in the NAI IC50; RI is a 10- to 100-fold increase; HRI is a >100-fold increase)

## CCC(CC)[C@H](NC(C)=O)[C@@H]1[C@H](O)[C@@H](C(=O)O)C[C@H]1N=C(N)N [Peramivir, peramivir]
[1]
  IC50 fold-change as compared to reference median IC50 values: 2 fold and 1.5 fold and 1 fold
  IC50 fold-change compared to reference median IC50 values: 2 (1) fold and 1.5 fold and 1 fold

## COC(=O)OCOc1c2n(ccc1=O)N([C@@H]1c3ccccc3SCc3c1ccc(F)c3F)[C@@H]1COCCN1C2=O [baloxavir, baloxavir marboxil]
[3]
  effect of substitutions on in vitro baloxavir susceptibility: little or no effect
[4]
  Fold-change in susceptibility to baloxavir compared to PA sequence-matched control virus: 4.7 [4.1] fold and 2.90 [3.7] fold
  fold increase in EC50 compared to a PA sequence matched control: 4.1 fold
[5]
  effect of substitution on baloxavir susceptibility: did not alter baloxavir susceptibility
[6]
  change in baloxavir susceptibility: no change
  fold increase in EC50 as compared to the respective median EC50s: < 3 fold
[7]
  fold increase in EC50 compared to the respective PA sequence-matched controls: < 3 fold
[8]
  EC50 fold-change as compared to reference median EC50: 0.88 [1.5] fold and 0.6 fold
  Fold-change in susceptibility to baloxavir compared to PA sequence-matched control virus: 0.88 [1.5] fold

## CCOC(=O)C1=C[C@@H](OC(CC)CC)[C@H](NC(C)=O)[C@@H](N)C1 [Oseltamivir, oseltamivir]
[1]
  inhibition phenotype (NI/RI/HRI): RI (key: normal inhibition (NI) is a <10-fold increase in the NAI IC50; RI is a 10- to 100-fold increase; HRI is a >100-fold increase)
[9]
  inhibition phenotype (NI/RI/HRI): RI/HRI
